Measured values from patent US10059676B2, “Process for preparing a novel crystalline form of iodosulfuron-methyl-sodium and use of the same” (ROTAM AGROCHEM INTERNATIONAL COMPANY LIMITED, priority 2015, dated 2018).

Assay: Stability test: accelerated storage of formulations, relative percentage of hydrolysis (RPH) by HPLC (CIPAC MT 46.3)
Format: physicochemical
Details: for stability (hydrolysis), in words: general statement, in water, on storage, in formulations; for RPH % (relative percentage of hydrolysis): stored at 54° C. for 1 week
Description: The stability of the iodosulfuron-methyl-sodium in these compositions was determined by aging samples in heated ovens having the same atmosphere therein, and then comparing the iodosulfuron-methyl-sodium content before and after the aging to determine relative percentage of hydrolysis (RPH). RPH was calculated by the following equation: […]
Iodosulfuron-methyl-sodium content was determined by assaying the compositions with high-pressure liquid chromatography (HPLC) using reverse phase columns and eluants.
Samples prepared in Examples 4, 5 and 6 were stored at 54° C. for 1 week. The procedures are followed according to CIPAC MT 46.3. The concentration of iodosulfuron-methyl-sodium was measured at the end of each storage time by HPLC.

[1] = oil based suspension concentrate (OD) of Example 4, 40 wt% iodosulfuron-methyl-sodium
[2] = soluble granules (SG) of Example 5, 25 wt% iodosulfuron-methyl-sodium
[3] = water dispersible granules (WG) of Example 6, 25 wt% iodosulfuron-methyl-sodium

stability (hydrolysis), in words (listed as iodosulfuron-methyl-sodium in the amorphous state) | RPH % (relative percentage of hydrolysis) [1] | RPH % (relative percentage of hydrolysis) [2] | RPH % (relative percentage of hydrolysis) [3] | stability (hydrolysis), in words (listed as crystalline modification I of iodosulfuron-methyl-sodium) | SMILES
highly unstable | 49% | 42% | 40% |  | COC(=O)c1ccc(I)cc1S(=O)(=O)NC(=O)[N-]c1nc(C)nc(OC)n1.[Na+] [Amorphous iodosulfuron-methyl-sodium, sodium salt of methyl 4-iodo-2-[[[[(4-methoxy-6-methyl-1,3,5-triazin-2-yl)amino]carbonyl]amino]sulfonyl]benzoate]
 | 0% | 0% | 0% | significant increase in its stability | COC(=O)c1ccc(I)cc1S(=O)(=O)NC(=O)[N-]c1nc(C)nc(OC)n1.[Na+] [Iodosulfuron-methyl-sodium, crystalline modification I] [sodium salt of methyl 4-iodo-2-[[[[(4-methoxy-6-methyl-1,3,5-triazin-2-yl)amino]carbonyl]amino]sulfonyl]benzoate]
